The values below come from patent US8802630B2, “Method of treating brain injury” (Buddhist Tzu Chi General Hospital, priority 2011, dated 2014).

Assay [1] has as its system collagenase-induced ICH rats. The assay is described as follows: Assessment of hemorrhagic volume (spectrophotometric assay). The format is in vivo. As for the experimental part:
Rats were randomly used in assessment of hemorrhagic volume at 24 hours (day 1) post-ICH. The accumulated hemorrhagic volume was quantified by a spectrophotometric assay as reported by Park et al., with minor modification (Park et al., 2005). Briefly, both contralateral and ipsilateral hemispheres were obtained after transcardial perfusion. PBS was added to the individual hemispheres to make-up a total of 3 ml volume for homogenization and centrifugation (15000 g, 30 minutes). The supernatant (40 μl) was reacted with Drabkin's reagent (160 μl, Sigma) for 15 minutes at room temperature. Optical density was measured at 540 nm with a spectrophotometer (Molecular Devices OptiMax, USA). Equivalent hemorrhage volume (μl) of the supernatant was calculated from a standard curve obtained with known amounts of the blood.

In assay [2] the test system is collagenase-induced ICH rats. Briefly: Assessment of brain edema (brain water content, wet/dry method). It counts as in vivo. Conditions: day 3 post-ICH. The source says: Brain edema formation peaks on day 3 post-ICH (Xue et al., 2000; Yang et al., 1994). […] Rats were randomly used in the assessment of brain water content by using a common wet/dry method as previously described (Chu et al., 2004). Briefly, 3 days post-ICH, rats were anesthetized and decapitated. The brains were removed and separated into contralateral, ipsilateral hemispheres and cerebellum. The cerebellum was used as an internal control. Sample was weighed to obtain the wet weight immediately, and then dried in an oven at 100° C. for 24 hours to obtain the dry weight. The water content was expressed as a percentage of the wet weight: [(wet weight)−(dry weight)](wet weight)^−1×100%.

The next assay deals with NeuN+ cells (neurons). The assay is described as follows: Immunohistochemistry of neuronal loss (NeuN). It counts as in vivo, rats. The note with it: perihematomal region; L-UCN 2.5 μg/kg i.p.; day 3 post-ICH. The procedure: Rats were used in immunohistochemistry on day 3 post-ICH. Rats were anesthetized as described above and transcardially perfused with cold 0.1 M phosphate buffer saline followed by cold 4% paraformaldehyde in 0.1 M phosphate-buffered saline. Brains were removed and immersed in 4% paraformaldehyde for 24 hours and 30% sucrose for another 24 hours. Coronal brain sections (20 μm thickness) were cut and collected from 0.0 to −2.0 mm AP to bregma using a cryostat (Leica CM 1900). Three 20 μm coronal sections, representing the core of the hematoma, were taken starting at 0.0 mm from bregma (the needle entry site). Additional adjacent serial coronal sections taken through the center of the hemorrhagic lesion were processed for the counting of marker-specific cells (Jung et al., 2004). Antibodies of OX-42 (1:100; BD, USA), ED-1 (1:100; BD, USA) were used as microglial markers, and NeuN (1:200, Chemicon, USA) was used as neuron marker. Tissues sections were incubated with the primary antibodies overnight at 4° C. […] The numbers of positive cells in the same focal plane were counted in 6 regions of interest around the ipsilateral striatum (perihematomal region, 1 mm^2) All cell counting was done by an independent investigator counted the positive cells.

For assay [3], the system named is collagenase-induced ICH rats. The assay is described as follows: Assessment of blood-brain barrier disruption (Evans blue extravasation). The format is in vivo. As for the experimental part:
Rats were randomly used in assessment of the vascular permeability of BBB with a modified Evans blue extravasation method (Esen et al., 2005). Briefly, 70 hours post-ICH, rats were anesthetized with chloral hydrate (0.4 g/kg) and infused, via the right femoral vein with 37° C. Evans blue dyes (2% in 0.9% normal saline, 4 ml/kg) over 5 minutes. Two hours later, the rats were perfused with 300 ml normal saline to wash out any remaining dye in the blood vessels and then brains were removed and sectioned into 2 mm thickness by a rodent brain matrix. Coronal brain sections were taken starting at +2 mm and ending at −4 mm from Bregma. BBB permeability was evaluated in the striatum, cortex and cerebellum. The cerebellum was used as an internal control. Each portion was weighed immediately and placed in 1 ml of 0.9% normal saline for homogenization of the sample. For protein precipitation, 1 ml of 60% trichloroacetic acid solution was added and vortexed for 2 minutes. The mixture was subsequently cooled for 30 minutes and centrifuged (1500 g at 4° C.) for another 30 minutes. The absorbance of Evans blue in the supernatant was then measured with a spectrophotometer (Molecular Devices OptiMax, USA) at 610 nm The dye concentration was expressed as μg/g of tissue weight and calculated from a standard curve obtained from known amounts of the dye.

Assay [4] deals with collagenase-induced ICH rats. Briefly: Morphometric measurement of lesion volume / injured area. It counts as in vivo. Conditions: for injured area: UCN 5 μg i.c.v. The source says:
[…] The brains were cut coronally through the needle entry site (identifiable on the brain surface), and then serially sliced (2-mm thickness) anteriorly and posteriorly to the needle entry site. Digital photographs of the serial slices were taken and lesion volume was computed using image analyzer program (Image J, NIH). The total lesion volume (mm^3) was computed by summing the residual blood clot and damaged area in each section and multiplying by the distance between sections (Jung et al., 2004).

Where no end group is shown, it is not given here.

In the case of “urocortin (DNPSLSIDLTFHLLRTLLELARTQSQRERAEQNRIIFDSV; ends and bridges not checked; UniProt P55089 83-122, looked up) [UCN, a 40-amino-acid endogenous neuropeptide, belongs to the corticotrophin releasing hormone (CRH) family]”, the hemorrhagic volume entry in assay [1] (L-UCN 2.5 μg/kg i.p., day 1 post-ICH, vs ICH+Saline) is recorded as “not significantly different”. Also, the accumulated hemorrhagic volume result in assay [1] (UCN 5 μg i.c.v., 24 h post-ICH, vs ICH+saline) is given as “not significantly different”. For the same substance, the brain water content entry is reported as “No significant differences” in assay [2] (cerebellum, L-UCN and H-UCN i.p., among groups); “essentially not affected” in assay [2] (cerebellum, UCN 5 μg i.c.v., among groups); 79.40±0.15% in assay [2] (contralateral hemisphere, H-UCN 25 μg/kg i.p.); 79.98±0.19% in assay [2] (contralateral hemisphere, L-UCN 2.5 μg/kg i.p.); 80.08±0.08% in assay [2] (contralateral hemisphere, UCN 5 μg i.c.v.); 79.94±0.66% in assay [2] (ipsilateral hemisphere, H-UCN 25 μg/kg i.p.). The brain water content in assay [2] (ipsilateral hemisphere, L-UCN 2.5 μg/kg i.p.) was 80.60±0.17%; in assay [2] (ipsilateral hemisphere, UCN 5 μg i.c.v.) it was 81.16±0.16%. The “NeuN+ cells” value in the assay on NeuN+ cells (neurons) was found to be 397.00±39.74 cells/6 mm^2. Besides, the “Evans blue dye concentration” value in assay [3] (cerebellum, contralateral cerebral cortex and striatum, L-UCN 2.5 μg/kg i.p., day 3) is “not changed”; in assay [3] (contralateral striatum, contralateral and ipsilateral cortices, cerebellum, UCN 5 μg i.c.v., day 3, vs ICH+Saline), “not different”; in assay [3] (ipsilateral cortex, L-UCN 2.5 μg/kg i.p., day 3 post-ICH), 0.38 ± 0.05 µg/g; in assay [3] (ipsilateral striatum, L-UCN 2.5 μg/kg i.p., day 3 post-ICH), 1.73 ± 0.36 µg/g. Besides, the Evans blue concentration in assay [3] (ipsilateral striatum, UCN 5 μg i.c.v., day 3 after ICH) is 1.24 ± 0.31 µg/g. Further, the lesion volume in assay [4] (L-UCN 2.5 μg/kg i.p., day 3 post-ICH) is reported as 23.73±1.79 mm^3. In addition, the injured area is 16.14±1.22 mm^2 in assay [4] (day 3 after ICH) and 5.62±1.04 mm^2 in assay [4] (day 7 after ICH).
